Data taken from US9532945B2, “Oral dosage forms including an antiplatelet agent and an enterically coated acid inhibitor” (KG ACQUISITION LLC, priority 2006, dated 2017).

Assays:
[1] = Excipient compatibility study: physical appearance; assay type: physicochemical; set-up: key: T: Off white powder with pellets; V: Off white powder with white pellets; W: Off white powder with off white pellets; X: Off white powder without pellets; Y: Off white powder with pellets and shells; Z: Sticky off white powder with grey pellets; S: Off white powder with blue pellets; R: Off white powder with grey pellets; Q: Off white powder with brown pellets; P: Brownish sticky powder with gray pellets; Off white powder with sticking brown pellets; N: Brownish sticky powder with blue pellets; M: Slight yellow powder with grey pellets; Light brownish sticky powder with off white pellets; K: Slight yellow agglutinate; J: Sticky off white powder with off white pellets; I: Capsule shells with white pellets and off white powder; H: Capsule shells with yellowish pellets and off white powder; conditions: stored at 40° C./75% RH
Method: In addition to the excipients used in the commercial formulation, some commonly used excipients were also tested. […] Samples were stored also at 25° C./60% RH to be tested only if the stress sample failed. […] The development work explored the compatibility of both APIs together with each of the proposed excipients individually in different ratios depending on the function of the excipient at different temperature and humidity conditions. The selected excipients were mixed with the APIs in different ratios depending on the excipient functionality (Table 5). In addition, samples of pure APIs and excipients were prepared and provided as reference and control respectively.

[2] = at a pH greater than about 4; cited from earlier work

Structure (SMILES)	Physical Appearance ([1]; 1 week)	Physical Appearance ([1]; 2 weeks)	Physical Appearance ([1]; 4 weeks)	Physical Appearance ([1]; 6 weeks)	Physical Appearance ([1]; 8 weeks)	Physical Appearance ([1]; 12 weeks)	Physical Appearance ([1]; Initial)	solubility [2]
COC(=O)[C@H](c1ccccc1Cl)N1CCc2sccc2C1 [Clopidogrel Bisulfate]	X	X	X	X	X	X	X	–
COC(=O)[C@H](c1ccccc1Cl)N1CCc2sccc2C1 [clopidogrel]	–	–	–	–	–	–	–	reduced solubility
